In patent US5993846A, “Bioadhesive emulsion preparations for enhanced drug delivery” (Pharmos Corporation, priority 1998, dated 1999):

System: blood clotting
Assay type: in vivo, Male Sprague Dawley rats
Experimental: Clotting time of blood droplets obtained by tail […] used to evaluate the systemic effect of LMWH following intracolonic (i.c.) or intravenous (i.v.) treatment of rats. Male Sprague Dawley rats (200-300 g) were used for all of these experiments. Following preliminary studies, experiments were performed between 8:00-13:00 hours in order to reduce diurnal changes in responsiveness to heparins. Rats were anesthetized with 0.3 ml […] (2:1), weighed, and the initial blood clotting time was determined. Each rat was then treated with either Fragmin or control vehicle (i.v. or i.c.). Intravenous treatment was performed by exposing the femoral […] and injecting in the direction of blood flow. Intracolonic treatment was performed by opening the peritoneal cavity at the midline, locating the secum, and injecting into the large intestine, approximately 2 cm from the secum. The time of treatment was considered as T. At the indicated intervals, blood clotting time was determined. The pharmacological activity, denoted PA %, was used to evaluate the relative effect of various routes of administration and dose levels on blood clotting time. PA % was calculated for the individual rats and the values presented are the mean of each group. […] Blood clotting was measured by […] […] The clotting time was measured with a stop watch that was started when the drops were collected.

Low molecular weight heparin [LMWH]
dose-response of blood clotting time and maximal effect, ME % (i.v., groups A-C, FIG. 4): approximately linear dose-response
TMAX of blood clotting time (rat, in vivo): 1.5 h
